The test system of one assay is E. coli S30 extract. Format: biochemical.
Assay [1] deals with rabbit reticulocyte lysate. The assay can be described thus: Translation inhibition in rabbit reticulocyte lysate system (luciferase mRNA). Format: biochemical.
Assay [2] relates to ribosomes. Conditions: macrolide-poisoned ribosomes; cited from earlier work.
Assay [3] has as its system ribosomes. Conditions: S. pneumoniae; cited from earlier work.
Assay [4] concerns ribosome peptidyl transferase. Conditions: cited from earlier work.

What is called IC50 is the point on the concentration scale where inhibition reaches its midpoint. For the compound `COc1ccc(C[C@H]2NC[C@H](O)[C@H]2OC(C)=O)cc1` [anisomycin], the concentration for half-maximal inhibition (IC50) in the assay with E. coli S30 extract is > 100 µM; in assay [1], 0.19 µM. Take `CC[C@H]1OC(=O)[C@H](C)[C@@H](O[C@H]2C[C@@](C)(OC)[C@@H](O)[C@H](C)O2)[C@H](C)[C@@H](O[C@@H]2O[C@H](C)C[C@H](N(C)C)[C@H]2O)[C@](C)(O)C[C@@H](C)C(=O)[C@H](C)[C@@H](O)[C@]1(C)O` [erythromycin]: in the assay with ribosomes [2], the “length of oligopeptides synthesized in presence of macrolide” value (“length of oligopeptides synthesized” below) is “permit the formation of tetrapeptides”. As to `O=C(N[C@H](CO)[C@H](O)c1ccc([N+](=O)[O-])cc1)C(Cl)Cl` [chloramphenicol], the IC50 in the assay with E. coli S30 extract was 12.3 µM; in assay [1], > 100 µM. As to `CO[C@@H]1[C@@H](O[C@@H]2O[C@H](C)[C@@H](O[C@H]3C[C@@](C)(O)[C@@H](OC(=O)CC(C)C)[C@H](C)O3)[C@H](N(C)C)[C@H]2O)[C@@H](CC=O)C[C@@H](C)C(=O)/C=C/[C@@H]2O[C@H]2C[C@@H](C)OC(=O)C[C@H]1OC(C)=O` [carbomycin A], the “length of oligopeptides synthesized” value with ribosomes [2] is on record as “strongly inhibits the formation of even the first peptide bond”. Regarding `CC[C@H]1OC(=O)[C@H](C)C(=O)[C@H](C)[C@@H](O[C@@H]2O[C@H](C)C[C@H](N(C)C)[C@H]2O)[C@](C)(OCC=Cc2cnc3ccccc3c2)C[C@@H](C)C(=O)[C@H](C)[C@H]2NC(=O)O[C@@]21C` [ABT-773], the “ribosome binding relative to erythromycin” value in the assay with ribosomes [3] was “binds ribosomes tighter than erythromycin”. Regarding `CC[C@H]1OC(=O)C[C@@H](O)[C@H](C)[C@@H](O[C@@H]2O[C@H](C)[C@@H](O[C@H]3C[C@@](C)(O)[C@@H](O)[C@H](C)O3)[C@H](N(C)C)[C@H]2O)[C@@H](CC=O)C[C@@H](C)C(=O)/C=C/C(C)=C/[C@@H]1CO[C@@H]1O[C@H](C)[C@@H](O)[C@@H](OC)[C@H]1OC` [tylosin], the “length of oligopeptides synthesized” value in the assay with ribosomes [2] is “allow formation of only dipeptides”. Turning to spiramycin, in the assay on ribosomes [2], the “length of oligopeptides synthesized” value is given as “allow formation of only dipeptides”. Turning to CCdA-phosphate-puromycin [CCdA-p-Puro], in assay [4], the “binding to the ribosome” value is “binds tightly to the ribosome” and the “inhibition of peptidyl transferase activity” value was “inhibits its peptidyl transferase activity”.

Values taken from patent US8912150B2, “Ribosome structure and protein synthesis inhibitors” (Rib-X Pharmaceuticals, Inc., priority 2001, dated 2014).
